In patent US20160137639A1, “TRIAZOLE-ISOXAZOLE COMPOUND AND MEDICAL USE THEREOF” (JAPAN TOBACCO INC., priority 2012, published 2016):
Where two headings read alike, the source gives them in different places.

Experiments:
human RORγ = biological target: T1, human RORγ (Homo sapiens, UniProt P51449); experiment: Luciferase reporter gene assay of inhibitory effect against RORγ transcriptional activity (GAL4-hRORγ plasmid in CHO cells); type: cell-based
T1 construct: human, NM_005060.3 and from Ser253 to Lys518; expressed in transfected cells; host or cells: CHO cells (transient co-transfection with pG5-Luc reporter)
T1 sequence (P51449 253-518): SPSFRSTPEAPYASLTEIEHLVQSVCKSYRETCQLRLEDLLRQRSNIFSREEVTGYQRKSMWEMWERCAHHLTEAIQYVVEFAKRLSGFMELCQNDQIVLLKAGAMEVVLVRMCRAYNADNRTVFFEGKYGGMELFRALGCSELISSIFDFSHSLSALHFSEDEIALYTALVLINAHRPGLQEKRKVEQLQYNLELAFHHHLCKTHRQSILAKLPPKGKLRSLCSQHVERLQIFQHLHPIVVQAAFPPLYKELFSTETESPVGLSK

mouse RORγ = biological target: T2, mouse RORγ (Mus musculus, UniProt P51450); experiment: Luciferase reporter gene assay of inhibitory effect against RORγ transcriptional activity (GAL4-mRORγ plasmid in CHO cells); type: cell-based
T2 construct: mouse, NM_011281.2 and from Ile251 to Lys516; expressed in transfected cells; host or cells: CHO cells (transient co-transfection with pG5-Luc reporter)
T2 sequence (P51450 251-516): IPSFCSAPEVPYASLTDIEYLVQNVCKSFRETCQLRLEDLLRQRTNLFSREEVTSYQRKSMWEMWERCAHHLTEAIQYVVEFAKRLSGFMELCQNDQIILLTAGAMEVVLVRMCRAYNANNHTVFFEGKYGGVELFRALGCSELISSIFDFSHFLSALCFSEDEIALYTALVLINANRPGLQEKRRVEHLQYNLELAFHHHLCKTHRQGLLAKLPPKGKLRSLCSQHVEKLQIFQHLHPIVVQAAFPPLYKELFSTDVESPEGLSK
Outline: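 Readout is intracellular luciferase after 2-day compound exposure (8 concentrations, 0.1% DMSO) in CHO cells expressing GAL4 fused to mouse RORγ LBD residues Ile251–Lys516 plus pG5-Luc reporter. EC50 fitted from %-of-control; points showing resazurin-detected cytotoxicity dropped.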

Structure (SMILES) | EC50 (human RORγ; read-out: LUC EC50 (μM) hRORg) | EC50 (mouse RORγ; read-out: LUC EC50 (μM) mRORg) | EC50 (human RORγ; read-out: LUC EC50 hRORg) | EC50 (mouse RORγ; read-out: LUC EC50 mRORg)
Cc1c(Cl)cccc1NC(=O)CCc1nnc(CCNC(C)C)n1C1CC1 [Example F-171] | > 3 µM | > 3 µM |  | 
CNC(=O)CCC(CC(=O)Nc1ccc(C)cc1C)c1nnc(CCCC(C)C)n1C1CC1 (racemic) [Example F-285] | > 3 µM | < 3 µM |  | 
Cc1cc(Cl)ccc1NC(=O)C[C@H](OC(C)C)c1nnc(-c2cc(CC(C)C)on2)n1C1CC1 [Example F-614] |  |  | < 3 µM | < 3 µM
Cc1ccc(NC(=O)CCc2nnc(-c3ccc(C(C)C)cc3)n2C2CC2)c(C)c1 [Example F-320] | < 3 µM | < 3 µM |  | 
Cc1ccc(NC(=O)[C@H]2CCCN(C)[C@@H]2c2nnc(CCC3CCCCC3)n2C2CC2)c(C)c1 [Example F-295] | < 3 µM | < 3 µM |  | 
Cc1ccc(NC(=O)CCc2nnc(CCC(C)C)n2C2CC2)cc1 [Example F-66] | > 3 µM | > 3 µM |  | 
COc1ccccc1NC(=O)CCc1nnc(CCC(C)C)n1C1CC1 [Example F-73] | > 3 µM | > 3 µM |  | 
Cc1ccc(NC(=O)CC(CC#N)c2nnc(CCCC(C)(C)C)n2C2CC2)c(C)c1 (racemic) [Example F-440] | < 3 µM | < 3 µM |  | 
Cc1ccc(NC(=O)[C@H]2CN(S(=O)(=O)C(F)(F)F)C[C@@H]2c2nnc(CCCC(C)(C)C)n2C2CC2)c(C)c1 (racemic) [Example F-527] |  |  | < 3 µM | < 3 µM
Cc1cccc(C)c1NC(=O)CCc1nnc(CCC(C)C)n1C1CC1 [Example F-70] | > 3 µM | > 3 µM |  | 
CC(C)(C)Cc1cc(-c2onc([C@H](CCC(=O)O)CC(=O)Nc3ccc(Cl)cc3Cl)c2C2CC2)no1 [Example E-79] |  |  | < 3 µM | < 3 µM
Cc1ccc(NC(=O)C[C@@H](C[C@H](O)CO)c2nnc(CCCC(C)C)n2C2CC2)c(C)c1 [Example F-342] | > 3 µM | > 3 µM |  | 
Cc1c(Cl)cccc1NC(=O)CCc1nnc(CCCC(C)(C)C(=O)O)n1C1CC1 [Example F-232] | > 3 µM | > 3 µM |  | 
Cc1ccc(NC(=O)CCc2nnc(C3(O)CC(CC(C)C)C3)n2C2CC2)c(C)c1 (single isomer, unassigned) [Example F-430] | < 3 µM | < 3 µM |  | 
Cc1ccc(NC(=O)CC(Cc2nnn[nH]2)c2nnc([C@H]3C[C@@H](CC(C)C)C3)n2C2CC2)c(C)c1 (mixture of isomers) [Example F-481] | > 3 µM | > 3 µM |  | 
Cc1ccc(NC(=O)C[C@H](CC(O)C(F)(F)F)c2nnc([C@H]3C[C@@H](CC(C)C)C3)n2C2CC2)c(C)c1 (single isomer, unassigned) [Example F-621] |  |  | < 3 µM | < 3 µM
CC(C)C(F)(F)c1cc(-c2onc([C@@H](CCC(=O)O)CC(=O)Nc3ccc(Cl)cc3F)c2C2CC2)no1 [Example E-55] | < 3 µM | < 3 µM |  | 
Cc1ccc(NC(=O)C[C@H](OC(C)C)c2nnc([C@H]3C[C@@H](CC(C)C)C3)n2C2CC2)c(C)c1 [Example F-558] |  |  | < 3 µM | < 3 µM
O=C(O)CC[C@@H](CC(=O)Nc1ccc(Cl)cc1F)c1noc(-c2cc(C3CCCC3)on2)c1C1CC1 [Example E-59] | < 3 µM | < 3 µM |  | 
CCn1c(CCC(=O)NC23CC4CC(CC(C4)C2)C3)nnc1C1Cc2ccccc2C1 [Example F-24] | > 3 µM | > 3 µM |  | 
Cn1c(CCC(=O)Nc2cccc3ccccc23)nnc1C1Cc2ccccc2C1 [Example F-8] | > 3 µM | < 3 µM |  | 
Cc1ccc(NC(=O)C[C@@H](c2nnc(CCCC(C)(C)C)n2C2CC2)N2CCCC2=O)c(C)c1 [Example F-403] | < 3 µM | < 3 µM |  | 

Structure (SMILES) | EC50 (human RORγ; read-out: LUC EC50 (μM) hRORg) | EC50 (mouse RORγ; read-out: LUC EC50 (μM) mRORg) | EC50 (human RORγ; read-out: LUC EC50 hRORg) | EC50 (mouse RORγ; read-out: LUC EC50 mRORg)
Cc1ccc(NC(=O)C[C@H](CCO)c2nnc([C@H]3C[C@@H](CC(C)C)C3)n2C2CC2)c(C)c1 [Example F-361] | < 3 µM | < 3 µM |  | 
Cc1cc(F)ccc1NC(=O)C[C@H](CCC(=O)O)c1noc(-c2cc(CCC(C)(C)C)on2)c1C1CC1 [Example E-37] | < 3 µM | < 3 µM |  | 
CC(C)(C)C[C@H]1C[C@@H](c2onc([C@@H](CCC(=O)O)CC(=O)NCC3CCOCC3)c2C2CC2)C1 [Example F-736] |  |  | > 3 µM | > 3 µM
Cc1c(Cl)cccc1NC(=O)CCc1nnc(CNC(=O)C(C)C)n1C1CC1 [Example F-221] | > 3 µM | > 3 µM |  | 
CC(=O)N1C[C@@H](C(=O)Nc2ccc(C)cc2C)[C@H](c2nnc([C@H]3C[C@H](OC(C)C)C3)n2C2CC2)C1 [Example F-335] | > 3 µM | > 3 µM |  | 
CCC1(CC)CC(c2nnc(CCC(=O)Nc3ccc(C)cc3C)n2C2CC2)C1 [Example F-451] | < 3 µM | < 3 µM |  | 
Cc1ccc(NC(=O)CCc2nnc(C3CC(COC(C)C)C3)n2C2CC2)c(C)c1 (single isomer, unassigned) [Example F-477] | < 3 µM | < 3 µM |  | 
CCC(=O)N1C[C@H](C(=O)Nc2ccc(C)cc2C)[C@@H](c2nnc(CCCC(C)(C)C)n2C2CC2)C1 (racemic) [Example F-400] | < 3 µM | < 3 µM |  | 
CC(=O)N1C[C@@H](C(=O)Nc2ccc(C)cc2C)[C@H](c2nnc(-c3cc(CC(C)C)no3)n2C2CC2)C1 [Example F-507] |  |  | > 3 µM | > 3 µM
C=CCC(CC(=O)NCc1ccc(C)cc1OC)c1nnc(CCC2CCCCC2)n1C1CC1 (racemic) [Example F-246] | < 3 µM | < 3 µM |  | 
Cc1ccc(NC(=O)CC(CCO)c2nnc(CCCC(C)C)n2C2CC2)c(C)c1 (racemic) [Example F-201] | < 3 µM | < 3 µM |  | 
Cc1ccc(NC(=O)CCc2noc(C3(CCO)CC(CC(C)(C)C)C3)c2C2CC2)c(Cl)c1 (mixture of isomers) [Example F-742] |  |  | > 3 µM | > 3 µM
Cc1ccc(NC(=O)C[C@H](CCC(=O)O)n2nnc([C@H]3C[C@@H](CC(C)(C)C)C3)c2C2CC2)c(Cl)c1 [Example F-682, (S)-5-(2-chloro-4-methyl-phenylcarbamoyl)-4-{5-cyclopropyl-4-[3-(2,2-dimethyl-propyl)-cyclobutyl]-[1,2,3]triazol-1-yl}pentanoic acid] |  |  | < 3 µM | < 3 µM
Cc1c(Cl)cccc1NC(=O)CCc1nnc(C2CCCC(C)C2)n1C1CC1 (centres unmarked) [Example F-135] | > 3 µM | < 3 µM |  | 
CC(=O)N1C[C@H](C(=O)Nc2ccc(F)cc2C)[C@@H](c2nnc(CCCC(C)(C)C)n2C2CC2)C1 (racemic) [Example F-333] | < 3 µM | < 3 µM |  | 
C#CCC(CC(=O)Nc1ccc(C)cc1C)c1nnc(CCCC(C)(C)C)n1C1CC1 (racemic) [Example F-437] | < 3 µM | < 3 µM |  | 
Cc1ccc(NC(=O)C[C@H](CCC(=O)O)c2noc([C@H]3C[C@@H](CC(C)(C)C(=O)O)C3)c2C2CC2)c(Cl)c1 [Example F-727] |  |  | > 3 µM | > 3 µM
Cc1ccc(NC(=O)C[C@H](CCO)c2noc([C@H]3C[C@@H](CC(C)C)C3)c2C2CC2)c(C)c1 [Example F-578] |  |  | < 3 µM | < 3 µM
Cc1ccc(NC(=O)CC(c2nnc([C@H]3C[C@@H](CC(C)C)C3)n2C2CC2)C(C)O)c(C)c1 (mixture of isomers) [Example F-529] |  |  | < 3 µM | < 3 µM
O=C(O)CC[C@@H](CC(=O)Nc1ccc(F)cc1Cl)c1noc(-c2cc(C3CCCC3)on2)c1C1CC1 [Example E-60] | < 3 µM | < 3 µM |  | 
CCn1c(CCC(=O)Nc2cccc(Cl)c2C)nnc1CCC1CCCC1 [Example F-54] | < 3 µM | < 3 µM |  | 
